According to patent US8178525B2 (priority 2008, dated 2012):
Counter-ions that a name gives are not always drawn. Like-named read-outs stand apart in the source and are kept apart here. Marks after values point to notes of the source that are not given here.

Legend:
physchem = assay type: physicochemical
Description: Rivaroxaban represented by formula A was used as the comparison drug.

rat tail bleeding time = assay: Bleeding time (BT) in rat tail bleeding model; assay type: in vivo; details: for Prolongation of bleeding time (X-fold): rat tail, po
Method: Fasted, male Sprague-Dawley rats, weighed 200-240 g and aged approximately 7 weeks, were anesthetized by intraperitoneal injection of pentobarbital-Na (60 mg/kg). The FXa inhibitors or vehicle was given orally 60 min before the tails of anesthetized rats were transected 2 mm from the tip and vertically immersed in saline at 37° C. The time until continuous blood flow ceased for >30 s was measured, with a maximum observation time of 30 min (longer bleeding time were assigned a value of 30 min).

human FXa = target: T1, human FXa (Homo sapiens, UniProt P00742); assay: Inhibitory activity against purified human FXa, chromogenic substrate S-2765; assay type: biochemical
T1 construct: purchased Enzyme Research Laboratories
Method: Human FXa was purchased from Enzyme Research Laboratories. 96-well microplate was purchased from Corning Life Sciences.
Inhibitory activity of the oxazolidinone derivatives with cyclic amidoxime or cyclic amidrazone group represented by formula I of the present invention against FXa was measured as follow.
The reaction was initiated by the addition of the substrate, and the absorbance was monitored continuously at 405 nm for 5 min using SpectraMax 190 (Molecular Devices, USA). The inhibitory constant (Ki) against human FXa was calculated according to the Cheng-Prusoff equation (Ki=IC50/1+[S]/Km), where [S] is the substrate concentration, and Km is the MichalisMenten constant. Km was determined from a Lineweaver-Burk plot. […] IC50 values were calculated using GraFit software version 5.0.12 (Erithacus Software Ltd., UK).

[1] = tested on: thrombus formation in rat AV-shunt; assay: Antithrombotic effect in arteriovenous shunt (AV-shunt) model in rats; assay type: in vivo; details: oral 60 min before shunt, dose not given
Method: Antithrombotic effect of the oxazolidinone derivatives with cyclic amidoxime or cyclic amidrazone group represented by formula I of the present invention was evaluated using arteriovenous (AV) shunt in rats. Fasted, male Sprague-Dawley rats, weighed 200-240 g and aged approximately 7 weeks, were anesthetized by intraperitoneal injection of urethane (1.25 g/kg) or chloral hydrate. An arteriovenous (AV) shunt in anesthetized rats was performed as described previously, with minor modification [Journal of Thrombosis and Haemostasis (2004) 3, 514]. The left common carotid artery and the right jugular vein were cannulated with two 200-mm-long, saline filled tubes (PE-50, Becton Dickinson, USA). The polyethylene tubes were connected through 8-mm-long silicone tubing (L/S® 13, MasterFlex, USA) with a 50-mm-long silicone tube (L/S® 16, MasterFlex, USA) containing a […]. The compound or vehicle was given orally 60 min before shunt was opened for 15 min. The cotton thread was then withdrawn and weighed. ED50 values were calculated by linear regression analysis using Excel 2003 (Microsoft®.

[2] = tested on: Citrated human and rat plasma; assay: Prothrombin time (PT), method using coagulometer; assay type: biochemical; details: concentration required to double the plasma clotting times, plasma species not given
Method: (§1) Effect of the oxazolidinone derivatives with cyclic amidoxime or cyclic amidrazone group represented by formula I of the present invention on blood coagulation was investigated by measuring prothrombin time (PT).
a) Method using coagulometer: Prothrombin time (PT) was measured with a Thrombotimer 4-channel coagulometer (Behnk Elektronik, Germany). Citrated human and rat plasma were used in the assays. For the PT measurement, 100 uL of freshly thawed plasma was mixed with 3 uL of serial dilution of test compound or DMSO. After 5 min incubation at 37° C., 200 uL of STA-Neoplastine (Diagnostica Stago, France) was added to start clot formation. Anticoagulant activity of the compounds was defined as the concentration required to double the plasma clotting times [2×PT (uM)]. Human plasma was obtained from Daejeon Red Cross Blood Center. […] Blood was collected into plastic tubes containing 1/10 volume of 3.8% sodium citrate. Plasma was obtained by immediate centrifugation at 2500 g for 10 min at 4° C., and stored at −70° C.

citrated plasma = assay: Prothrombin time (PT), method using spectramax; assay type: biochemical, human and rat; details: concentration required to double the plasma clotting times, absorbance 340 nm, plasma species not given
Method: as §1
b) Method using spectramax: The compound solution of serial dilution (5 uL) according to the present invention was mixed with citrated plasma (45 uL) followed by addition of STA-Neoplastine (Diagnostica Stago, France) after 5 min at 37° C. Absorbance at 340 nm was continuously monitored and the PT was determined as time (in seconds) when the absorbance at 340 nm reached 0.1. Anticoagulant activity of the compounds was defined as the concentration required to double the plasma clotting times [2×PT (uM)]. Human plasma was obtained from Daejeon Red Cross Blood Center. […] Blood was collected into plastic tubes containing 1/10 volume of 3.8% sodium citrate. Plasma was obtained by immediate centrifugation at 2500 g for 10 min at 4° C., and stored at −70° C.

[3] = asterisked values (chloral hydrate anesthetic)
[4] = values without asterisk (urethane anesthetic)
[5] = purified human FXa 2.6 nM, S-2765 300 uM, pH 7.8, 37° C., Cheng-Prusoff, Km 125 μM, read-out: Ki (nM), inhibition constant against human FXa

T1 sequence (P00742 235-488 limits assumed): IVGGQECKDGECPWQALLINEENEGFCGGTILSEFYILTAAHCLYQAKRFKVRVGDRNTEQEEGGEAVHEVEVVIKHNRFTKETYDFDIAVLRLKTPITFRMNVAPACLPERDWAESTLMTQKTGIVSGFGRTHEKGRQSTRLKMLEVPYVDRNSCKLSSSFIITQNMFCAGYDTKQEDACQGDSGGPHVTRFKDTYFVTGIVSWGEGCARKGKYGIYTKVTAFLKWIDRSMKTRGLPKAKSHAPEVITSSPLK
T1 sequence (P00742 41-179 partner limits assumed): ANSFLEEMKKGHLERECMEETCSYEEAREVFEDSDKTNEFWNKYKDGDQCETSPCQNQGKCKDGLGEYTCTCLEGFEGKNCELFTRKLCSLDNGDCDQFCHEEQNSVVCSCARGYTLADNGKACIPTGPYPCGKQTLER

## CN1CCON=C1c1ccc(N2C[C@H](CNC(=O)c3ccc(Cl)s3)OC2=O)cc1 [100 (HCl salt)]
physchem; water, read-out: Aqueous Solubility
  solubility: 12 mM
Rat tail bleeding time; dose 5 mg/kg
  Prolongation of bleeding time (X-fold): 1.2 X-fold
Rat tail bleeding time; dose 10 mg/kg
  Prolongation of bleeding time (X-fold): 0.9 X-fold

## CN1CCON=C1c1ccc(N2C[C@H](CNC(=O)c3ccc(Cl)s3)OC2=O)cc1 [100 (MSA salt)]
physchem
  Aqueous Solubility: >20 mM
Rat tail bleeding time; dose 5 mg/kg
  Prolongation of bleeding time (X-fold): 1.1 X-fold
Rat tail bleeding time; dose 10 mg/kg
  Prolongation of bleeding time (X-fold): 1.8 X-fold
Rat tail bleeding time; dose 20 mg/kg
  Prolongation of bleeding time (X-fold): 5.1 X-fold

## O=C(NC[C@H]1CN(c2ccc(N3CCNC=N3)cc2)C(=O)O1)c1ccc(Cl)s1 [109 (MSA salt)]
physchem
  Aqueous Solubility: >20 mM
Rat tail bleeding time; dose 2.5 mg/kg
  Prolongation of bleeding time (X-fold): 2.1 X-fold
Rat tail bleeding time; dose 5 mg/kg
  Prolongation of bleeding time (X-fold): 3.8 X-fold
Rat tail bleeding time; dose 10 mg/kg
  Prolongation of bleeding time (X-fold): 5.7 X-fold

## CN1CCON=C1c1ccc(N2C[C@H](CNC(=O)c3ccc(Cl)s3)OC2=O)cc1 [Compound 100]
Human FXa
  Ki: 7.11 nM
[1]; [3]
  Inhibition of thrombus formation (%): 58%
[1]; [4]
  Inhibition of thrombus formation (%): 65%
[2]
  2xPT (uM) Coagulometer: 0.69 ± 0.07 µM
Rat tail bleeding time; rat tail bleeding model, 10 mg/kg
  prolongation of bleeding time compared to the vehicle control: did not prolonged bleeding time
Rat tail bleeding time; dose 5 mg/kg
  Prolongation of bleeding time (X-fold): 0.9 X-fold
Citrated plasma
  2xPT (uM) Spectramax: 0.25 µM

## O=C(NC[C@H]1CN(c2ccc(C3=NOCCN3)cc2)C(=O)O1)c1ccc(Cl)s1 [Compound 101]
Human FXa
  Ki: 110 nM
[1]; [4]
  Inhibition of thrombus formation (%): 45%
Citrated plasma
  2xPT (uM) Spectramax: 1.39 µM

## CCN1CCON=C1c1ccc(N2C[C@H](CNC(=O)c3ccc(Cl)s3)OC2=O)cc1 [Compound 102]
Human FXa
  Ki: 8.91 nM
[1]; [4]
  Inhibition of thrombus formation (%): 61%
[2]
  2xPT (uM) Coagulometer: 1.76 µM
Citrated plasma
  2xPT (uM) Spectramax: 0.77 µM

## O=C(NC[C@H]1CN(c2ccc(C3=NOCCN3C3CC3)cc2)C(=O)O1)c1ccc(Cl)s1 [Compound 103]
Human FXa
  Ki: 53.3 nM
[1]; [4]
  Inhibition of thrombus formation (%): 24%
Citrated plasma
  2xPT (uM) Spectramax: 1.10 µM

## CN1OCCN=C1c1ccc(N2C[C@H](CNC(=O)c3ccc(Cl)s3)OC2=O)cc1 [Compound 104]
Human FXa; [5]
  Ki: 10 nM
[1]; [4]
  Inhibition of thrombus formation (%): 21%
Citrated plasma
  2xPT (uM) Spectramax: 0.05 µM

## CCN1OCCN=C1c1ccc(N2C[C@H](CNC(=O)c3ccc(Cl)s3)OC2=O)cc1 [Compound 105]
Human FXa; [5]
  Ki: 3.62 nM
[1]; [4]
  Inhibition of thrombus formation (%): 80%
[2]
  2xPT (uM) Coagulometer: 0.16 µM
Citrated plasma
  2xPT (uM) Spectramax: 0.04 µM

## CCN1CCN(C)N=C1c1ccc(N2C[C@H](CNC(=O)c3ccc(Cl)s3)OC2=O)cc1 [Compound 106]
Human FXa
  Ki: > 30 nM
Citrated plasma
  2xPT (uM) Spectramax: 0.33 µM

## O=C(NC[C@H]1CN(c2ccc(C3=NCCN4C(=O)CCN34)cc2)C(=O)O1)c1ccc(Cl)s1 [Compound 108]
Human FXa
  Ki: 15.8 nM
[1]; [4]
  Inhibition of thrombus formation (%): 52%
[2]
  2xPT (uM) Coagulometer: 1.00 µM
Citrated plasma
  2xPT (uM) Spectramax: 0.35 µM

## O=C(NC[C@H]1CN(c2ccc(N3CCNC=N3)cc2)C(=O)O1)c1ccc(Cl)s1 [Compound 109-HCl]
physchem
  Aqueous Solubility: 6 mM

## O=C(NC[C@H]1CN(c2ccc(N3CCNC=N3)cc2)C(=O)O1)c1ccc(Cl)s1 [Compound 109]
Human FXa
  Ki: 4.37 nM
[1]; [3]
  Inhibition of thrombus formation (%): 73%
[1]; [4]
  Inhibition of thrombus formation (%): 78%
[2]
  2xPT (uM) Coagulometer: 0.44 µM
Rat tail bleeding time; dose 2.5 mg/kg
  Prolongation of bleeding time (X-fold): 2.5 X-fold
Rat tail bleeding time; dose 5 mg/kg
  Prolongation of bleeding time (X-fold): 4.0 X-fold
Rat tail bleeding time; dose 10 mg/kg
  Prolongation of bleeding time (X-fold): 4.1 X-fold
Citrated plasma
  2xPT (uM) Spectramax: 0.21 µM

## CC1=NN(c2ccc(N3C[C@H](CNC(=O)c4ccc(Cl)s4)OC3=O)cc2)CCN1 [Compound 110]
Human FXa; [5]
  Ki: 2.07 nM
[1]; [3]
  Inhibition of thrombus formation (%): 45* %
[2]
  2xPT (uM) Coagulometer: 0.31 µM

## CCC1=NN(c2ccc(N3C[C@H](CNC(=O)c4ccc(Cl)s4)OC3=O)cc2)CCN1 [Compound 111]
Human FXa; [5]
  Ki: 18.9 nM
[1]; [3]
  Inhibition of thrombus formation (%): 17* %
[2]
  2xPT (uM) Coagulometer: 0.40 µM

## CN1C=NN(c2ccc(N3C[C@H](CNC(=O)c4ccc(Cl)s4)OC3=O)cc2)CC1 [Compound 112]
Human FXa; [5]
  Ki: 120 nM
[1]; [3]
  Inhibition of thrombus formation (%): 44* %
[2]
  2xPT (uM) Coagulometer: 4.26 µM

## CC1=NN(c2ccc(N3C[C@H](CNC(=O)c4ccc(Cl)s4)OC3=O)cc2)CCN1C [Compound 113]
Human FXa; [5]
  Ki: 29.3 nM
[1]; [3]
  Inhibition of thrombus formation (%): 12* %
[2]
  2xPT (uM) Coagulometer: 0.62 µM

## CN1C=NCCN1c1ccc(N2C[C@H](CNC(=O)c3ccc(Cl)s3)OC2=O)cc1 [Compound 114]
Human FXa; [5]
  Ki: 2.86 nM
[1]; [3]
  Inhibition of thrombus formation (%): 5* %
[2]
  2xPT (uM) Coagulometer: 0.50 µM

## O=C(NC[C@H]1CN(c2ccc(N3C=NOCC3)cc2)C(=O)O1)c1ccc(Cl)s1 [Compound 115]
Human FXa; [5]
  Ki: 84 nM
[1]; [4]
  Inhibition of thrombus formation (%): 29%
Citrated plasma
  2xPT (uM) Spectramax: 1.49 µM

## CC1=NOCCN1c1ccc(N2C[C@H](CNC(=O)c3ccc(Cl)s3)OC2=O)cc1 [Compound 116]
Human FXa; [5]
  Ki: 23.2 nM
[1]; [4]
  Inhibition of thrombus formation (%): 74%
[2]
  2xPT (uM) Coagulometer: 3.51 µM
Citrated plasma
  2xPT (uM) Spectramax: 0.71 µM

## O=C(NC[C@H]1CN(c2ccc(N3CCON=C3C3CC3)cc2)C(=O)O1)c1ccc(Cl)s1 [Compound 117]
Human FXa; [5]
  Ki: 101 nM
Citrated plasma
  2xPT (uM) Spectramax: 2.2 µM

## O=CN1CCN(c2ccc(N3C[C@H](CNC(=O)c4ccc(Cl)s4)OC3=O)cc2)C=N1 [Compound 118]
Human FXa; [5]
  Ki: 132 nM
[1]; [4]
  Inhibition of thrombus formation (%): 74%
[2]
  2xPT (uM) Coagulometer: 9.38 µM
Citrated plasma
  2xPT (uM) Spectramax: 4.88 µM

## CC1=NN(C)CCN1c1ccc(N2C[C@H](CNC(=O)c3ccc(Cl)s3)OC2=O)cc1 [Compound 121]
Human FXa; [5]
  Ki: 95.6 nM
[1]; [4]
  Inhibition of thrombus formation (%): 51%
[2]
  2xPT (uM) Coagulometer: 2.90 µM
Citrated plasma
  2xPT (uM) Spectramax: 0.54 µM
